The structures appear in SMILES notation. Several values for one entry are separate records, joined by “and”; a condition that tells them apart may be missing. Equal values may be shown once. Where a name gives a salt, the structure may show the parent alone. Read-outs that look alike come from different tables or passages of the source.

One data set in a line: clinical. The following applies: human, plasma, iv, Plasma concentrations, individual opioid withdrawal patients, IV infusion.
For data set [1] the following is noted: for Plasma concentrations: individual opioid withdrawal patients, IV infusion.
For data set [2] the following is noted: SDAT.
[3] abbreviates: Day 2 (printed Day −2), 00:00 Hr.
Where [4] appears, read: Post-ECG, After stopping of Dose.

In the case of `Cc1cccc([C@H](C)c2cnc[nH]2)c1C` [dexmedetomidine hydrochloride], the concentration at […] in the data set “clinical” (Day 1 (printed Day −1), 01:15 Hr) amounted to 0.0753 ng/mL; in the data set “clinical” (Day 1 (printed Day −1), 01:30 Hr), 0.112 ng/mL; in “clinical” (Day 2 (printed Day −2), 01:15 Hr), 0.14 ng/mL; in “clinical” (Day 2 (printed Day −2), 01:30 Hr) it was 0.177 ng/mL; in “clinical” (Day 2 (printed Day −2), 01:45 Hr), 0.288 ng/mL. For the same compound, the concentration at 0 h in the data set “clinical” (setting [3]) came out at 0.00821 ng/mL. In the data set “clinical” (Day 2 (printed Day −2), 02:00 Hr), this compound returned a concentration at 2 h of 0.404 ng/mL. Also, the Plasma concentrations result was “BLQ” in data set [1] (Day 1 (printed Day −1), 00:00 Hr); “BLQ” in data set [1] (setting [3]); 54.81 picograms/ml and 97.92 picograms/ml and 119.71 picograms/ml in data set [1] (Day 2 (printed Day −2), 01:00 Hr). Also, the “Plasma concentration achieved at efficacious doses” value in data set [1] (Opioid withdrawal Study) lay within 0.011 to 0.406 ng/mL. In addition, the “QTc interval, Max” value in data set [2] (setting [4]) amounted to 592; in data set [2] (Pre-ECG, Before Dosing) it was 524. The “QTc interval, Mean ± SD” value in data set [2] (setting [4]) was 462.9 ± 73.04; in data set [2] (Pre-ECG, Before Dosing) it was 447.2 ± 35.51. Moreover, the “QTc interval, Median” value in data set [2] (setting [4]) is listed as 441.0; in data set [2] (Pre-ECG, Before Dosing), 444.3. The “QTc interval, Min” value stood at 370 in data set [2] (setting [4]) and 398 in data set [2] (Pre-ECG, Before Dosing).
